The values below come from PMC12503906, “Novel Pyrazolo [1,5‐a]−1,3,5‐Triazine Derivatives as CDK7 Inhibitors: Synthesis and Biological Insights in Pancreatic Ductal Adenocarcinoma Models” (Chemmedchem, 2025).

The subject of assay [1] is PANC‐1. The experiment in a line: Annexin V apoptosis assay, PANC‐1. In kind it is cell-based. The note with it: 1 × IC50. How it is done:
In order to investigate the apoptotic properties of the compounds 1b and 1g, the Annexin V apoptosis assay was performed. Annexins are calcium‐dependent phospholipid binding proteins, which are able to bind to phosphatidylserine (PS). The externalization of PS residues on the outer membrane of apoptotic cells can be detected by Annexin V.
For this assay, cells were seeded in a 96‐well plate at a concentration of 13.5 × 10^3 and 4.5 × 10^3 /well respectively for the 24 and 72 h experiments. The next day cells were treated with compounds 1b and 1g at 1 × IC50 and 4 × IC50 concentrations. The apoptosis assay was performed 24 and 72 h post‐treatment following the BD Pharmingen FITC Annexin V Apoptosis Detection Kit I (BD Biosciences, 556,547). The supernatant was aspirated, and cells were washed with phosphate‐buffered saline (PBS). Cells were consequently treated with binding buffer BBA + Annexin V (1:100) and were incubated in the dark at RT for 10 min. The supernatant was removed, and the cells were washed with BBA (1:10). Cells were then incubated with BBA + PI (1:100) and were immediately read with the spectrophotometer at ex. 485/ em. 535. Two different programs were used to read the Annexin V and the PI absorbance. Lastly, 100 µL of PBS were added to each well before being fixed with TCA. This was followed by the SRB assay to standardize fluorescence data according to cell count. Data were exported into GraphPad Prism 10 for statistical analysis.

The target in assay [2] is phosphorylated CDK7 (p‐CDK7) (Homo sapiens, UniProt P50613). Kind of assay: Phospho‐CDK7 (Thr170) cell‐based ELISA, PDAC3. Also noted: endogenous in cells; host or cells: PDAC3 primary cells. To be noted: PDAC3, 4 × IC50, ELISA. How it is done:
To detect CDK7 and phospho‐CDK7 levels at Thr170 residue after treatment, an enzyme‐linked immunosorbent assay (Biomatik, Phospho‐CDK7 (Thr170) Colorimetric Cell‐Based ELISA Kit, Cat# EKA51274) was performed according to the manufacturer's protocols. […] The absorbance was read at 450 nm using a microplate reader.
In general terms: In an ELISA, binding on a coated surface is turned into a signal by an enzyme label.

Assay [3] relates to PATU‐T. The experiment in a line: SRB chemosensitivity assay, PATU‐T cells. In kind it is cell-based. To be noted: read-out: IC50 PATU‐T. How it is done:
(§1) Three lines of immortalized PDAC cells were selected as representative phenotypes: mesenchymal (PATU‐T), quasimesenchymal (PANC‐1), and an epithelial clone of SUIT 2 cells (SUIT 2.28). Cells were cultured in noncoated T‐75 and T‐25 flasks under adherent conditions, using 1× DMEM (Gibco, 41,966,029) for PATU‐T and RPMI (Gibco, 21,875,034) for SUIT 2.28 and PANC‐1, both supplemented with 10% NBCS and 1% P/S. Additional employed models were the PDAC3 cells, a primary cell culture, the PSCs, which were immortalized healthy pancreatic cells, and the PATU‐T‐GR, which was a gemcitabine resistant model of PATU‐T. PDAC3 and PSCs were cultivated using complete RPMI medium, while PATU‐T‐GR required complete DMEM medium. For seeding, cells were detached with Trypsin‐EDTA (0.05%) (GibcoTM, 25,300–096) and were consequently counted using the Automated Cell Counter (Luna‐II, Westburg). Cells were then plated on 96‐ or 6‐well plates depending on the planned experiment.
(§2) The Sulforhodamine B (SRB) chemosensitivity assay was used to measure cytotoxicity and cell proliferation post drug treatment. At day 0, 3–6 × 10^3 cells were seeded in a 96‐well plate, depending on the cell line. At day 1, cells were attached and ready to be treated. For the calculation of the IC50, drug dilutions for the compounds 1b, 1c, 1d, 1e, 1g, 1hr, 1i, 1j, and LDC4297 (MedChemExpress, HY‐12,653) were prepared in dilution trays and eight different concentrations were included. These were added in triplicates to the cells, which were then incubated for […] at 37 °C in 5% CO2. During day 1, the control plate was fixed with 50% Trichloroacetic acid (TCA), as intended to be the baseline plate used for the normalization of the data. 72 h post‐treatment, the cells were fixed with TCA, and placed at 4 °C for about 2 h. The plates were then washed with distillated water and left to dry under the hood with ventilation. Subsequently, plates were stained with 0.4% SRB for 15 min and washed with 1% acetic acid to remove excess stain. Once dried again, the protein‐bound SRB was dissolved in 10 mM TRIS, and the plates were placed on a shaker for 10 min per plate. Lastly, the absorbance was measured at 492 nm with a spectrophotometer (Synergy HT, BioTek). The absorbance data obtained were normalized to the day 1 control, and the percentage of cell growth in relation to the control was calculated using the following formula. (1) %Cell growth=Mean OD treatment−Mean OD day0/Mean OD control−Mean OD day0×100
(§3) The percentage of proliferation and their respective standard deviations were used to perform statistical analysis in GraphPad Prism software v 10 (GraphPad Software, San Diego, CA). Data were normalized to the day 0 control and to their own untreated 72 h control. These were transformed into logarithmic data, and log(inhibitor) versus response analysis was performed for obtaining the IC50 values per cell lines. Each experiment was conducted in triplicates.
A general note: Sulforhodamine B stains cellular protein and so reports cell mass.

Assay [4] concerns PANC‐1. The experiment in a line: Cell cycle analysis (FACS, PI staining), PANC‐1. Type of assay: cell-based. The note with it: for percentage of cells in the G2‐M phase: untreated 18.1%; for percentage of cells in the G0‐G1 phase: untreated 40.7%; for percentage of cells in the S phase: untreated 41.3%. On the procedure:
Modulation of the cell cycle was analyzed via flow cytometry. Cells (5 × 10^5 cells mL^− ^1) were seeded in 6‐well plates and were incubated at 37 °C overnight. Cells were treated with the compounds 1b and 1g at two different concentrations (1 × IC50 and 4 × IC50, according to each cell line) and were again incubated for 24 and 72 h. After treatment, cells were harvested with trypsin and were collected in specific fluorescence‐activated cell sorting (FACS) tubes. Cells were then washed with PBS and centrifuged at 1500 rpm for 5 min, in order to form a pellet. These pellets were fixed in 1 mL of ice‐cold 70% ethanol, added drop by drop during vortex, and placed in the refrigerator at 4 °C. After overnight incubation, the cells were washed twice with PBS, centrifuged (5 min at 1500 rpm), resuspended in 50 µL of RNase (100 µg mL^− ^1), and incubated for 30 min at 37 °C. Finally, 200 µL of propidium iodide solution (PI, 50 µg mL^− ^1) was added, and the cell distribution in the various phases of the cell cycle was analyzed via BD LSRFortessa Cell Analyzer. Data analysis was carried out with FACSdiva software (Becton Dickinson), while cell cycle distribution was determined using FCS express software.

The target of assay [5] is CDK7 (Homo sapiens, UniProt P50613). Kind of assay: In vitro CDK7 enzyme inhibition assay (ADP‐Glo). Type of assay: biochemical. The arrangement: purchased Promega Corporation VA7402.
Chain of CDK7 (P50613 whole entry): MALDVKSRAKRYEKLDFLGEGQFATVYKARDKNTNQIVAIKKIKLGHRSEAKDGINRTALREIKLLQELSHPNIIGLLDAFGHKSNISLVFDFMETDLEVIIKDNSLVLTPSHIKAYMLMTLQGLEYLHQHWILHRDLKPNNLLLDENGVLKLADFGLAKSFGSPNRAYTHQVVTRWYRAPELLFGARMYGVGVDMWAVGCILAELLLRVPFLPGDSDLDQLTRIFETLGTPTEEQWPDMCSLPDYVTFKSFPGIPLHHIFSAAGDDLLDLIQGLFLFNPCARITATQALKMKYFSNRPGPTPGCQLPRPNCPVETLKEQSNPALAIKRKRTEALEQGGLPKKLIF
Chain of CDK7 (P51946 whole entry partner): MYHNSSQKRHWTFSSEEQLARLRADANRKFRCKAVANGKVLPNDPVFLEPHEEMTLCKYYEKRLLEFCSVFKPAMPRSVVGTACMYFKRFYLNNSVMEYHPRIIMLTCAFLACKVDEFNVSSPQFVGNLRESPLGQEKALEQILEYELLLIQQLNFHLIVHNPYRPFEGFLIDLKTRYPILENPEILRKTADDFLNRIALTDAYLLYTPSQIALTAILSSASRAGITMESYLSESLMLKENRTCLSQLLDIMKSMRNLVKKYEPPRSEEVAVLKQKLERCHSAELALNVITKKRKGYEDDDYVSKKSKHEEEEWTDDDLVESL
Chain of CDK7 (P51948 whole entry partner): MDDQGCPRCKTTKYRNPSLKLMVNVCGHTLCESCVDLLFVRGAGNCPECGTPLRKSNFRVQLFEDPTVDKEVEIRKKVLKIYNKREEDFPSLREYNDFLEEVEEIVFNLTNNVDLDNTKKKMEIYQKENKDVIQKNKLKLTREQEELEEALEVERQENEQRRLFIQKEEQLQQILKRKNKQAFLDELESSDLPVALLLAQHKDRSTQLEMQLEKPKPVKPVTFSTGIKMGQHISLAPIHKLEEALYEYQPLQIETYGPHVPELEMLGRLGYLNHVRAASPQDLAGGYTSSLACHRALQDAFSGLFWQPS
Description: The CDK7 enzyme inhibition assay was conducted using the ADP‐Glo Kinase Assay (VA7402, Promega Corporation, Madison, WI, USA) according to the manufacturer's instructions. In this assay, CDK7 catalyzes the conversion of ATP to ADP. The reaction was terminated by adding the ADP‐Glo reagent, which depletes residual ATP. Subsequently, the kinase detection reagent was introduced to convert ADP back into ATP, which was then measured via a luciferase reaction, producing luminescence. The assay was carried out at room temperature, using DMSO as the solvent for the tested compounds. Each compound was tested at eight different concentrations. […] Luminescence was recorded using a BioTek plate reader (BioTek Instruments Inc.), as previously described.^[ [39] ^] The percentage of enzyme inhibition was determined for each compound at different concentrations, and mean IC50 values of triplicate experiments were calculated using GraphPad Prism.
Assay [6] concerns SUIT 2.28. Kind of assay: SRB chemosensitivity assay, SUIT 2.28 cells. In kind it is cell-based. The note with it: read-out: IC50 SUIT 2.28. On the procedure: as §1, §2, §3
[7] abbreviates: SRB, 72 h of treatment, average ± SEM, triplicate.

Like-named read-outs stand apart in the source and are kept apart here.

Chain of phosphorylated CDK7 (p‐CDK7) (P50613 2-346 limits assumed): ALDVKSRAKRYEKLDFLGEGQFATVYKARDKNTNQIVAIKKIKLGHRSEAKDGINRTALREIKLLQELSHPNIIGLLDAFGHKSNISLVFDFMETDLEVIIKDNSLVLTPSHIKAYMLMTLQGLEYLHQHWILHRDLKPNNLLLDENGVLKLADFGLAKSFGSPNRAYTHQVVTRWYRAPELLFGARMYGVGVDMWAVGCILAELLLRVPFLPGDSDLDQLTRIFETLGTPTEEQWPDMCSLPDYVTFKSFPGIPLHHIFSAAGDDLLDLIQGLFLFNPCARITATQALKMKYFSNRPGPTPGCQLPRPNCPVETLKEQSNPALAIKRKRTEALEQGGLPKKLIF
Chain of phosphorylated CDK7 (p‐CDK7) (P51946 whole entry partner): as the sequence (P51946 whole entry partner) above
Chain of phosphorylated CDK7 (p‐CDK7) (P51948 whole entry partner): as the sequence (P51948 whole entry partner) above

The term IC50 denotes the concentration that gives 50% inhibition. `Nc1ncnc2cc(-c3c[nH]c4ccc(Br)cc34)nn12` [Compound 1b, 7‐(5‐Bromo‐1H‐indol‐3‐yl)pyrazolo[1,5‐a][1,3,5]triazin‐4‐amine]: the apoptotic index result is given as “did not show any significant increase in apoptotic index” in assay [1] (PANC‐1, 24 h) and “significant increase in apoptotic index” in assay [1] (PANC‐1, 72 h). In addition, in assay [2], the “p‐CDK7 expression vs untreated” value is reported as “decrease in p‐CDK7 expression”. The half-inhibitory concentration (IC50) turned out to be 1400 ± 200 nM in assay [3] (setting [7]); 25 nM in assay [5] (ADP‐Glo assay, mean of triplicate experiments, read-out: CDK7 inhibition activity IC50); 600 ± 100 nM in assay [6] (setting [7]). Also, the “percentage of cells in the G2‐M phase” value in assay [4] (PANC‐1, 1 × IC50, 24 h) was determined as 12.2%; in assay [4] (PANC‐1, 4 × IC50, 24 h), 10.0%. Besides, the “percentage of cells in the G0‐G1 phase” value in assay [4] (PANC‐1, 1 × IC50, 24 h) was 55.0%; in assay [4] (PANC‐1, 4 × IC50, 24 h), 62.8%. Moreover, the “percentage of cells in the S phase” value in assay [4] (PANC‐1, 1 × IC50, 24 h) was 32.7%; in assay [4] (PANC‐1, 4 × IC50, 24 h) it was 28.3%.
On to `Cn1cc(-c2cc3ncnc(N)n3n2)c2cc(Br)ccc21` [Compound 1g, 7‐(5‐Bromo‐1‐methyl‐1H‐indol‐3‐yl)pyrazolo[1,5‐a][1,3,5]triazin‐4‐amine], for which the apoptotic index entry was “did not show any significant increase in apoptotic index” in assay [1] (PANC‐1, 24 h) and “slight increase that was not statistically significant” in assay [1] (PANC‐1, 72 h). Moreover, the “p‐CDK7 expression vs untreated” value in assay [2] is on record as “decrease in p‐CDK7 expression”. The figures for the IC50 in assay [3] (72 h), in assay [5] and in assay [6] (72 h) were 1300 ± 100 nM, 28 nM and 200 ± 100 nM, respectively. Further, the “percentage of cells in the G2‐M phase” value is given as 16.9% in assay [4] (PANC‐1, 1 × IC50, 24 h) and 14.1% in assay [4] (PANC‐1, 4 × IC50, 24 h). The “percentage of cells in the G0‐G1 phase” value in assay [4] (PANC‐1, 1 × IC50, 24 h) is recorded as 55.2%; in assay [4] (PANC‐1, 4 × IC50, 24 h), 56.9%. Further, the “percentage of cells in the S phase” value came out at 27.9% in assay [4] (PANC‐1, 1 × IC50, 24 h) and 29.0% in assay [4] (PANC‐1, 4 × IC50, 24 h).
